Values quoted from earlier work, collected in US5391753A, “Heteroaryl substituted phenylethenyl compounds having retinoid-like biological activity” (Allergan, Inc., priority 1993, dated 1995).

Tested on: TPA induced ODC activity (ornithine decarboxylase)
Conditions: qualitative statement on retinoic acid, background

SMILES: CC1=C(/C=C/C(C)=C/C=C/C(C)=C/C(=O)O)C(C)(C)CCC1 [Retinoic acid]
- inhibition of induction of ODC activity by TPA: inhibits this induction of ODC activity by TPA
